From US11008332B2, “Pharmaceutical composition for preventing or treating aging-related diseases containing decursin derivative as active ingredient” (PRG S&TECH INC., priority 2017, dated 2021)
Where “and” joins values, the source holds several entries; their conditions need not be identical. Equal values may be shown once.

Key:
HGPS cells [1] = assay: Immunofluorescence staining of HGPS cells (nuclear morphology, progerin, H3K9me3); type: cell-based, Human
Protocol: Human fibroblast cells from HGPS patients (AG03198, person; AG03199; person), WS patients (AG06300, person; AG03141, person; AG00780, person) and controls (GM 00038, person) were obtained from the Coriell Cell Repositories (Camden, N.J., USA) and were maintained in EMEM, containing 15% FBS, 2 mM glutamine or HEMEM with 26 mM HEPES without antibiotics.
Cells were seeded on a cover glass and transfected with the indicated vectors.
After fixing with 100% methanol or 1% paraformaldehyde (PFA) for 1 h at 4° C., cells were incubated with blocking buffer (PBS+anti-human-Ab; 1:400) for 1 h.
After washing with PBS twice, cells were incubated with anti-Lamin A/C, Progerin or H3K9Me3 in blocking buffer (1:200) overnight and sequentially with anti-goat Ab-FITC or anti-rabbit Ab-rhodamin in blocking buffer (1:500) for 7 h and mounted, and nucleus was stained with DAPI. Thereafter Immunofluorescence signal was detected by fluorescence microscopy (Zeiss and Logos).
For counting nuclear deformed cell, obtained immunofluorescence images were used. Nuclear membrane showing abnormalities, dependent on Lamin A staining, were counted from randomly selected field. Counted cells were calculated percentage.

progerin = target: T1, progerin (Homo sapiens, UniProt P02545); assay: GST pull-down of bead-conjugated GST WRN-R1/WRN-R2 with GFP-progerin transfected 293 cell lysates; type: binding; settings: compared with WRN-R1, FIG. 4B
T1 construct: expressed in transfected cells; host or cells: HEK293
T1 sequence (P02545 1-614 isoform P02545-6): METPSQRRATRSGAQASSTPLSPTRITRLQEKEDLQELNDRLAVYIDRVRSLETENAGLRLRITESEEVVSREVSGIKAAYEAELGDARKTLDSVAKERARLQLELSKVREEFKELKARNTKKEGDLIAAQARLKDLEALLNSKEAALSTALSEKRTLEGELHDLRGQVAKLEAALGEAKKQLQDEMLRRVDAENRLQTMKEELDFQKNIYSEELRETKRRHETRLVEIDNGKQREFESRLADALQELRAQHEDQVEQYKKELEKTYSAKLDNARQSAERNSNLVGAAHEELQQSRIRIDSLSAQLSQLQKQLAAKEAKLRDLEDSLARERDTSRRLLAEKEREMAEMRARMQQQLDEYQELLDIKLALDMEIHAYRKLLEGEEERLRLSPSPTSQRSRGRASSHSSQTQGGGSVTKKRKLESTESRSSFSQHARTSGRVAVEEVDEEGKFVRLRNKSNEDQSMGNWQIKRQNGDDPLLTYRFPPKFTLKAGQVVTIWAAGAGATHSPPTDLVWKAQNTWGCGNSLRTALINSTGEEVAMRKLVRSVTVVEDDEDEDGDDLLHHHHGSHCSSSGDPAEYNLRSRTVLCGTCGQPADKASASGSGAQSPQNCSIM
Protocol: For the analysis of protein-protein interaction, Glutathione S-transferase (GST) pull-down assay was performed.
To detect the interaction, GST-bead-fused Lamin A-C-terminal region, Progerin-C-terminal region, WRN-R1 region or WRN-R2 region was incubated with GFP tagged Progerin (GFP-Progerin) and Lamin A (GFP-Lamin A) transfected HEK293 cell lysate for 30 min at RT.
After washing once with PBS, precipitated materials were collected and subjected into SDS-PAGE and western blot with anti-GFP and GST.

[2] = target: T2, progerin and Lamin A binding (Homo sapiens, UniProt P02545); assay: Competition assay of WRN-R1 and R2 against progerin and Lamin A binding; settings: bead conjugated GST-progerin with GFP-Lamin A transfected 293 lysate, FIG. 4C
T2 construct: produced by cloning of 100 AA from upstream of the termination codon through PCR; made in house; GFP-Lamin A from transfected 293 cells
T2 sequence (P02545 1-614 isoform P02545-6): T1 sequence (P02545 1-614 isoform P02545-6)
Protocol: For the competition assay of WRN-R1 and R2 against progerin and Lamin A binding, bead-conjugated GST-progerin was incubated with GFP-Lamin A overexpressed 293 lysate with or without WRN-R1 or R2 recombinant protein.

[3] = Chemical pharmacokinetic (PK) analysis, blood/plasma concentration by LC-MS/MS; type: in vivo; settings: for Plasma concentration, Mean: n = 3
Protocol: For PK analysis, 5 mg/kg of JH4 in 10% DMSO, 5% Tween […] solution was intravenously injected and 10 mg/kg of JH4 in 10% NMP and 90% PEG400 solution was per orally delivered. At the setting time-points, blood concentration of JH4 was determined by LC-MS/MS analysis and the PK analysis for other chemicals was also tested by the similar protocol.

hERG ion channel = hERG ion channel (Homo sapiens, UniProt Q12809); assay: hERG inhibition (in vitro ADME); settings: in vitro ADME analysis, FIG. 2B
Chain of hERG ion channel (Q12809 whole entry): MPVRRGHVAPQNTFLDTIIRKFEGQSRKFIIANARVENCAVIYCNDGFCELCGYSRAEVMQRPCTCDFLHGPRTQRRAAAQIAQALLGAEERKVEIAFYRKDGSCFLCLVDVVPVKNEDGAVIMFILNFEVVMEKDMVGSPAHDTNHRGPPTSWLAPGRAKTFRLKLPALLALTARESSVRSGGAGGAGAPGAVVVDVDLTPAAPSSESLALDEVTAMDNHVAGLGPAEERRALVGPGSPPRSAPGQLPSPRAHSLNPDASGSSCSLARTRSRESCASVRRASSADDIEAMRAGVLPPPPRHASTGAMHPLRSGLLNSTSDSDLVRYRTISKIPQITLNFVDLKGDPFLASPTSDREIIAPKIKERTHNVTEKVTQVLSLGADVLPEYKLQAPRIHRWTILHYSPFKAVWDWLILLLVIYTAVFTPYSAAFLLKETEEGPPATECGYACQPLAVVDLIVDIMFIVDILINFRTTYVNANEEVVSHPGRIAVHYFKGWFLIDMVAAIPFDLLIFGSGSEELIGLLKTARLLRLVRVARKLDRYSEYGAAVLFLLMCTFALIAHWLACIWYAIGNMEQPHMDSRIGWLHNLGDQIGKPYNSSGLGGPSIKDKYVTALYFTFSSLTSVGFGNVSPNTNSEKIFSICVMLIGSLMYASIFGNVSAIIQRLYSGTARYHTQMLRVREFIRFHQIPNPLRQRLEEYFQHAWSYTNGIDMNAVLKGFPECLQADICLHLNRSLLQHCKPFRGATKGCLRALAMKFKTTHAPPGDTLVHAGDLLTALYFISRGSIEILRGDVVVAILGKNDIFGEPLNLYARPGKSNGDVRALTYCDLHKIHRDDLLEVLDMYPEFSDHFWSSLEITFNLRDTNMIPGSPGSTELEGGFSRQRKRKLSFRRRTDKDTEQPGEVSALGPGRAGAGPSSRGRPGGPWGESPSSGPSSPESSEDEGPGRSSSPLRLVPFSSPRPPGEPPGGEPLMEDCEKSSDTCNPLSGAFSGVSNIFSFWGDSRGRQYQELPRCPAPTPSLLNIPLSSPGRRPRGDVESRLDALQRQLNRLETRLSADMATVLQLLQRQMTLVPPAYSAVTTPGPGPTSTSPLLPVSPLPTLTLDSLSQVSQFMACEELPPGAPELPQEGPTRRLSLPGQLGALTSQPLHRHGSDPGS

[4] = tested on: progerin expression in progerin-transfected 293 cells; assay: Progerin expression analysis in progerin-transfected 293 cells (Western blot); type: cell-based; settings: 24 hours, FIG. 1D
Protocol: HEK293 cell line, obtained from ATCC, were maintained in liquid medium (DMEM) containing 10% FBS and 1% antibiotics at 37° C.
Whole-cell lysates were prepared in RIPA.
15 μg of cell extracts were separated by SDS-PAGE and transferred onto a PVDF membrane.
The membrane was incubated for 1 h to overnight at 4° C. with primary antibody, followed by reaction with a secondary antibody at room temperature for 1 h.
Peroxidase activity was detected by chemiluminescence with ECL kit (Intron, Seoul, Korea) as recommended by its manufacturer.

Lmna^wt/G609G mice = assay: Life span and morphology of Lmna^wt/G609G mice; type: in vivo, mouse
Water solubility = type: physicochemical
HGPS cells [5] = settings: previous report; cited from earlier work
[6] = tested on: Lmna^G609G/G609G, progeria model mouse; settings: intraperitoneal injection (i.p.), previous report; cited from earlier work
Plasma protein = Plasma protein binding, human; type: in vitro ADME
Protocol: In vitro ADME studies (plasma protein binding, CYP inhibition, microsomal stability, plasma stability and hERG inhibition) were performed by New drug development center though standard protocols.

[7] = recombinant peptide delivered into HGPS cells with protein delivery agent, 24 hr, FIG. 4D
[8] = intravenous injection 5 mg/kg, 1 hr
[9] = intravenous injection 5 mg/kg, 2 hr
[10] = intravenous injection 5 mg/kg, 8 hr
[11] = intravenous injection 5 mg/kg, 24 hr
[12] = oral administration 10 mg/kg, 0.08 hr
[13] = oral administration 10 mg/kg, 0.25 hr
[14] = oral administration 10 mg/kg, 0.5 hr
[15] = oral administration 10 mg/kg, 1 hr
[16] = oral administration 10 mg/kg, 2 hr
[17] = oral administration 10 mg/kg, 4 hr
[18] = oral administration 10 mg/kg, 8 hr
[19] = oral administration 10 mg/kg, 24 hr
[20] = Lmna^wt/G609G mice, injection started from 43 weeks old, FIG. 2E

## WRN-R2: recombinant WRN-R2 region (hWRN 424-476), duplicated peptide HLSPNDNENDTSYVIESDEDELEMEMLK x2
HGPS cells [1]; [7]
  H3K9me3 expression in HGPS cells: H3K9me3 expression was improved
  nuclear morphology of HGPS cells: nuclear morphology was normalized
progerin
  binding to progerin: strongly binds to progerin
[2]
  blocking of interaction of progerin and Lamin A: blocks the interaction of progerin and Lamin A

## CC1(C)Oc2cc3oc(=O)ccc3cc2CC1OC(=O)N/C=C/c1cccnc1 (stereo not shown) [JH010]
[3]; PK analysis, FIG. 2A
  bioavailability (B.A.): 70%
[3]; in vivo PK analysis, FIG. 2A
  PK profile: proper PK profile
hERG ion channel
  hERG ion channel inhibition: hERG ion channel inhibition of the JH010 compound was confirmed
[4]
  progerin expression: inhibiting progerin expression
HGPS cells [1]; HGPS cells incubated 48 hr, FIG. 1E
  nuclear abnormality of HGPS cells: improved nuclear abnormality of HGPS cells
HGPS cells [1]; immunostaining, FIG. 1F
  H3K9me3 expression in HGPS cells: induced H3K9me3 expression

## CC1(C)Oc2cc3oc(=O)ccc3cc2C[C@@H]1OC(=O)/C=C/c1cccnc1 [JH4]
[3]; PO treatment, FIG. 1A
  disappearance after PO treatment: very rapidly disappeared by PO treatment
[3]; intravenous injection 5 mg/kg, 0.08 hr
  Plasma concentration, Mean: 4.7 ng/mL
[3]; intravenous injection 5 mg/kg, 0.08 hr, 5 mg/kg
  Plasma concentration, individual subjects: 3.3 ng/mL and 4.6 ng/mL and 6.3 ng/mL
[3]; intravenous injection 5 mg/kg, 0.25 hr
  Plasma concentration, Mean: 1.5 ng/mL
[3]; intravenous injection 5 mg/kg, 0.25 hr, 5 mg/kg
  Plasma concentration, individual subjects: 1.7 ng/mL and 1.1 ng/mL and 1.8 ng/mL
[3]; intravenous injection 5 mg/kg, 0.5 hr
  Plasma concentration, Mean: 0.6 ng/mL
[3]; intravenous injection 5 mg/kg, 0.5 hr, 5 mg/kg
  Plasma concentration, individual subjects: 0.5 ng/ml (2×) and 0.7 ng/ml
[3]; [8]
  Plasma concentration, individual subjects: BQL (Below Quantifiable Limit (<1 ng/ml))
  Plasma concentration, Mean: BQL (Below Quantifiable Limit (<1 ng/ml))
[3]; [9]
  Plasma concentration, individual subjects: BQL (Below Quantifiable Limit (<1 ng/ml))
  Plasma concentration, Mean: BQL (Below Quantifiable Limit (<1 ng/ml))
[3]; intravenous injection 5 mg/kg, 4 hr
  Plasma concentration, Mean: BQL (Below Quantifiable Limit (<1 ng/ml))
[3]; intravenous injection 5 mg/kg, 4 hr, 5 mg/kg
  Plasma concentration, individual subjects: BQL (Below Quantifiable Limit (<1 ng/ml)) (2×) and BOL
[3]; [10]
  Plasma concentration, individual subjects: BQL (Below Quantifiable Limit (<1 ng/ml))
  Plasma concentration, Mean: BQL (Below Quantifiable Limit (<1 ng/ml))
[3]; [11]
  Plasma concentration, individual subjects: BQL (Below Quantifiable Limit (<1 ng/ml))
  Plasma concentration, Mean: BQL (Below Quantifiable Limit (<1 ng/ml))
[3]; intravenously injected and orally administrated
  half-life in vivo: very short half-life
[3]; [12]
  Plasma concentration, individual subjects: BQL (Below Quantifiable Limit (<1 ng/ml))
  Plasma concentration, Mean: BQL (Below Quantifiable Limit (<1 ng/ml))
[3]; [13]
  Plasma concentration, individual subjects: BQL (Below Quantifiable Limit (<1 ng/ml))
  Plasma concentration, Mean: BQL (Below Quantifiable Limit (<1 ng/ml))
[3]; [14]
  Plasma concentration, individual subjects: BQL (Below Quantifiable Limit (<1 ng/ml))
  Plasma concentration, Mean: BQL (Below Quantifiable Limit (<1 ng/ml))
[3]; [15]
  Plasma concentration, individual subjects: BQL (Below Quantifiable Limit (<1 ng/ml))
  Plasma concentration, Mean: BQL (Below Quantifiable Limit (<1 ng/ml))
[3]; [16]
  Plasma concentration, individual subjects: BQL (Below Quantifiable Limit (<1 ng/ml))
  Plasma concentration, Mean: BQL (Below Quantifiable Limit (<1 ng/ml))
[3]; [17]
  Plasma concentration, individual subjects: BQL (Below Quantifiable Limit (<1 ng/ml))
  Plasma concentration, Mean: BQL (Below Quantifiable Limit (<1 ng/ml))
[3]; [18]
  Plasma concentration, individual subjects: BQL (Below Quantifiable Limit (<1 ng/ml))
  Plasma concentration, Mean: BQL (Below Quantifiable Limit (<1 ng/ml))
[3]; [19]
  Plasma concentration, individual subjects: BQL (Below Quantifiable Limit (<1 ng/ml))
  Plasma concentration, Mean: BQL (Below Quantifiable Limit (<1 ng/ml))
Lmna^wt/G609G mice; Lamn^wt/G609G model
  prolongation of life: about 10 weeks
Lmna^wt/G609G mice; [20]
  average life span: 54 weeks
  maximum (max) life span: 56 weeks
Water solubility
  water solubility: very low water solubility
HGPS cells [5]
  aging-related markers in HGPS cells: restored aging-related markers such as p16/INK4A, DNA-PK and H3K9me3 expression
  nuclear deformation of HGPS cells: improved the nuclear deformation of HGPS cells
[6]
  prolongation of progerin model mouse lifespan: about 4 weeks

## C[C@@H]1C[C@H]2[C@@H]3CCC4=CC(=O)C=C[C@]4(C)[C@@]3(F)[C@@H](O)C[C@]2(C)[C@@]1(O)C(=O)CO [Dexamethasone]
Plasma protein
  Plasma protein binding Human (% Bound): 62.1 % Bound
